# Experiments:
# [1] = test system: H. contortus moxidectin-resistant strain (MOF14); test: Efficacy of verapamil with or without ivermectin against moxidectin resistant H. contortus in jirds (Example 7); format: in vivo, Haemonchus contortus
# Description: (§1) Jirds, which are fed on a standard commercial ration to which 0.02% hydrocortisone has been added 5 days prior to infection, are inoculated with 1000 exsheathed L3 H. contortus. On day 10 after inoculation, the jirds are treated with either water or various doses of moxidectin or ivermectin orally. Each treatment group contains 6 jirds. Probit analyses are used to estimate LD50 levels for each anthelmintic against each strain.
# (§2) Verapamil is given concomitantly with ivermectin by the oral route.
# [2] = test system: H. contortus moxidectin-resistant strain (MOF14); test: Effect of verapamil on efficacy of moxidectin and ivermectin against moxidectin-resistant H. contortus in jirds (Example 8); format: in vivo, Haemonchus contortus; parameters: key to SIGNIFICANCE AT P <0.05: A: Different letters indicate the mean worm counts are statistically different; B: Different letters indicate the mean worm counts are statistically different; C: Different letters indicate the mean worm counts are statistically different; settings: for SIGNIFICANCE AT P <0.05: MOF14 in jirds, mean worm counts, IVM (±VRP) not compared with MOX (±VRP)
# [3] = test system: H. contortus susceptible strain (PF14); test: Efficacy of verapamil with or without ivermectin against susceptible H. contortus in jirds (Example 7); format: in vivo, Haemonchus contortus
# Description: as §1, §2
# [4] = test system: H. contortus moxidectin-resistant strain (MOF14); test: Dose titration to establish LD50 against moxidectin resistant H. contortus in the jird; format: in vivo, Haemonchus contortus; settings: jirds, oral, treated day 10 after inoculation, probit analysis
# Description: as §1
# [5] = test system: H. contortus susceptible strain (PF14); test: Dose titration to establish LD50 against susceptible H. contortus in the jird; format: in vivo, Haemonchus contortus; settings: jirds, oral, treated day 10 after inoculation, probit analysis
# Description: as §1
# [6] = test system: H. contortus ivermectin resistant strain (ACR); settings: ACR after twelve generations of ivermectin selection
# [7] = test system: mice with deletion of mdr1a; settings: mice with deletion of mdr1a versus normal mice; cited from earlier work
# [8] = test system: H. contortus ivermectin resistant strain (MFR); settings: MFR selected over seventeen generations of ivermectin selection; cited from earlier work
# [9] = verapamil 20 mg/kg, resistant worms, jirds (Example 8)
Compound,"significance of worm counts ([1]; MOX-resistant strain MOF14 in jirds, VRP 20 mg/kg, IVM 0.046 mg/kg, oral)","effect of verapamil alone on worm counts ([1]; moxidectin resistant strain, any of the dose rates used (20 to 80 mg/kg), jirds)","effect of verapamil on the efficacy of ivermectin ([1]; verapamil 20 mg/kg, moxidectin resistant worms, jirds (Example 7))",SIGNIFICANCE AT P <0.05 [2],"effect of verapamil on the efficacy of moxidectin [2, 9]","increase in efficacy when verapamil is coadministered with ivermectin [2, 9]","significance of worm counts ([3]; susceptible strain PF14 in jirds, VRP 20 mg/kg, IVM 0.024 mg/kg, oral)","effect of verapamil alone on worm counts ([3]; susceptible strain, any of the dose rates used (20 to 80 mg/kg), jirds)",estimated LD50 [4] [mg/kg],estimated LD50 [5] [mg/kg],resistance at the ED95 compared with ACS [6] [×],sensitivity to ivermectin relative to normal mice [7],resistance at the ED95 compared with MFS [8] [×]
COc1ccc(CCN(C)CCCC(C#N)(c2ccc(OC)c(OC)c2)C(C)C)cc1OC (centres unmarked) [verapamil],n.s.,no significant effect on worm counts,significantly enhances the efficacy of ivermectin,A,significantly increases the efficacy of moxidectin,not significant,n.s.,no significant effect on worm counts,,,,,
"CO/N=C1\C[C@]2(C[C@@H]3C[C@@H](C/C=C(\C)C[C@@H](C)/C=C/C=C4\CO[C@@H]5[C@H](O)C(C)=C[C@@H](C(=O)O3)[C@]45O)O2)O[C@H](/C(C)=C/C(C)C)[C@H]1C [moxidectin, 23-(O-methyloxime)-LL-F28249α]",,,,B,,,,,0.017,0.010,,,
"22,23-dihydroavermectin B1 [ivermectin]",,,,B,,,,,0.046,0.024,6.3,50-100 times,10

# Reference: patent US6593087B2, “Methods for detecting and reversing resistance to macrocyclic lactone compounds” (priority 1997, dated 2003)
